This test deals with T1, DRB1*0301 (DR3w17) (Homo sapiens, UniProt P01903+P01911, A100K/A102G/A103R/A169T/F55Y/I96L/K41T/L162R/M171V/P40S/Q125H/Q178H/Q39Y/R42S/S66N/T106N/T262R/W38E/Y61H).
T1 construct: used as sources of human HLA class II molecules; endogenous in cells; host or cells: MAT (EBV-transformed homozygous B cell line)
Nature of the test: Class II peptide-binding assay, DR3 (pH 4.5).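 Further: unlabeled peptide competing with a radiolabeled probe peptide for binding to affinity-purified HLA-DR3, IC50 regarded as an approximation of Kd.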 The conditions noted are these: Table VIII.

Where [1] appears, read: read-out: In IC50 Format DR3 nM, values in parentheses read as lower bounds.

pIC50: −log10 of the molar value. Like-named read-outs stand apart in the source and are kept apart here. Ends that are not written are not given here. Peptide text beside a SMILES is read from it.

T1 sequence (P01903 26-254, other chains not shown): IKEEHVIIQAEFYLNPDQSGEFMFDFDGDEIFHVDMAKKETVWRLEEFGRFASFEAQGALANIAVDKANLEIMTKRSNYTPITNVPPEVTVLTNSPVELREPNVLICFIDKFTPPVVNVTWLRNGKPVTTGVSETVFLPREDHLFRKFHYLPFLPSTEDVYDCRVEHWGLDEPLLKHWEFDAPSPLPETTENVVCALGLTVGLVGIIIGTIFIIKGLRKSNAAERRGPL

A word on the pIC50: it is the negative decadic logarithm of the IC50, by convention in mol/L. `CC(C)C[C@H](NC(=O)[C@@H]1CCCN1C(=O)CNC(=O)[C@@H](N)CCCCN)C(=O)N1CCC[C@H]1C(=O)N[C@H](C(=O)N[C@@H](CC(=O)O)C(=O)N[C@@H](CS)C(=O)N[C@@H](CS)C(=O)N[C@@H](Cc1c[nH]cn1)C(=O)N[C@@H](CCC(=O)O)C(=O)N[C@@H](CCC(N)=O)C(=O)N[C@@H](CS)C(=O)N[C@@H](C)C(=O)N[C@@H](C)C(=O)O)[C@@H](C)O` [Peptide 39.0344]: the pIC50 under setting [1] was under 3.95.

For the compound SLAFLPESFDGDPAS [Peptide 39.0349], the pIC50 under setting [1] is under 3.95.

As for `CC(C)C[C@H](NC(=O)[C@H](CCC(N)=O)NC(=O)[C@H](CC(=O)O)NC(=O)[C@H](Cc1c[nH]c2ccccc12)NC(=O)[C@@H]1CCCN1C(=O)[C@@H](NC(=O)[C@@H](NC(=O)[C@H](Cc1c[nH]cn1)NC(=O)[C@@H](N)C(C)C)[C@@H](C)O)C(C)C)C(=O)N[C@@H](Cc1ccccc1)C(=O)N[C@@H](CCCNC(=N)N)C(=O)N[C@@H](CC(N)=O)C(=O)N1CCC[C@H]1C(=O)N[C@@H](Cc1c[nH]cn1)C(=O)N[C@@H](CCC(N)=O)C(=O)O` [Peptide 39.0353], the pIC50 under setting [1] was 4.87.

In the case of `CC[C@H](C)[C@H](NC(=O)[C@H](CC(N)=O)NC(=O)[C@@H](N)CCC(N)=O)C(=O)N[C@H](C(=O)N[C@@H](CCC(N)=O)C(=O)N[C@@H](CC(N)=O)C(=O)N[C@@H](CC(=O)O)C(=O)N[C@H](C(=O)NCC(=O)N[C@@H](Cc1ccccc1)C(=O)N[C@@H](Cc1ccc(O)cc1)C(=O)N[C@H](C(=O)N[C@@H](CC(C)C)C(=O)N[C@@H](Cc1c[nH]cn1)C(=O)N[C@H](C(=O)O)C(C)C)[C@@H](C)O)[C@@H](C)O)[C@@H](C)CC` [Peptide 39.0313], the pIC50 (page 2, pH 4.5, read-out: In IC50 Format DR3) is 6.03.

As for `CC(C)C[C@H](NC(=O)[C@H](Cc1ccc(O)cc1)NC(=O)[C@H](CC(N)=O)NC(=O)[C@@H](N)Cc1ccc(O)cc1)C(=O)N[C@@H](CO)C(=O)N[C@H](C(=O)N[C@@H](CC(=O)O)C(=O)N[C@H](C(=O)NCC(=O)N[C@@H](CO)C(=O)N[C@@H](CS)C(=O)N[C@H](C(=O)N[C@@H](CC(C)C)C(=O)N[C@H](C(=O)N[C@@H](CS)C(=O)O)C(C)C)[C@@H](C)O)C(C)C)[C@@H](C)O` [Peptide 39.0346] (H-YNYLSTDVGSCTLVC-OH), the pIC50 under setting [1] is 4.29.

`CC(C)C[C@H](NC(=O)[C@H](CC(N)=O)NC(=O)CNC(=O)[C@@H](N)CCC(=O)O)C(=O)N[C@@H](CCCNC(=N)N)C(=O)N[C@H](C(=O)N[C@@H](CCC(=O)O)C(=O)N[C@@H](Cc1ccc(O)cc1)C(=O)N[C@@H](CC(C)C)C(=O)N[C@@H](CC(=O)O)C(=O)N[C@@H](CC(=O)O)C(=O)N[C@@H](CCCNC(=N)N)C(=O)N[C@@H](CC(N)=O)C(=O)N[C@H](C(=O)N[C@@H](Cc1ccccc1)C(=O)O)[C@@H](C)O)C(C)C` [Peptide 39.0417]: where the note is “read-out: In IC50 Format DR3”, the pIC50 was 4.11.

In the case of SLSFLQDIQEVQGYV [Peptide 39.0339], for the setting “values in parentheses read as lower bounds, read-out: In IC50 Format DR3”, the pIC50 was 5.24.

As to QGFFCPDPAPGAGGM [Peptide 39.0376], under setting [1], the pIC50 is 4.18.

With `CSCC[C@H](NC(=O)[C@H](CC(=O)O)NC(=O)[C@H](CC(C)C)NC(=O)[C@H](Cc1c[nH]cn1)NC(=O)[C@@H](NC(=O)[C@H](CCC(=O)O)NC(=O)[C@@H]1CCCN1C(=O)[C@H](CO)NC(=O)[C@H](C)NC(=O)[C@@H]1CCCN1C(=O)[C@H](CC(C)C)NC(=O)[C@@H](N)CCCNC(=N)N)[C@@H](C)O)C(=O)N[C@@H](CC(C)C)C(=O)N[C@@H](CCCNC(=N)N)C(=O)N[C@@H](Cc1c[nH]cn1)C(=O)O` [Peptide 39.0338], under setting [1], the pIC50 is under 3.95.

In the case of DTILWKDIFHKNNQL [Peptide 39.0342], under setting [1], the pIC50 is under 3.95.

With `CSCC[C@H](NC(=O)[C@H](CC(=O)O)NC(=O)[C@H](CC(=O)O)NC(=O)[C@H](CC(=O)O)NC(=O)[C@H](CCC(=O)O)NC(=O)[C@H](CC(C)C)NC(=O)[C@H](CC(C)C)NC(=O)[C@H](CO)NC(=O)[C@@H](N)CCCNC(=N)N)C(=O)NCC(=O)N[C@@H](CC(=O)O)C(=O)N[C@@H](CC(C)C)C(=O)N[C@H](C(=O)N[C@@H](CC(=O)O)C(=O)N[C@@H](C)C(=O)O)C(C)C` [Peptide 39.0374], under setting [1], the pIC50 is 4.43.

AIKVLRENTSPKANK [Peptide 39.0362]: the pIC50 under setting [1] was 4.40.

(Values after EP1388586A2, “Identification of broadly reactive DR restricted epitopes” (priority 1998, dated 1999).)
